{"source": "patent EP3960748A1", "about": "“COMPOSITION FOR THE TREATMENT OF THE SIDE EFFECTS OF RADIOTHERAPY AND/OR CHEMOTHERAPY” (Fundación Profesor Novoa Santos, priority 2019, dated 2020)", "format_in_all_cases": "cell-based", "key": {"p53": {"test_system": "p53", "test": "Western blot of p53 in radiated fibroblasts", "conditions": "Fig. 7; post-radiation treatment for 72 hours; oleuropein 10 µM, BIRB796 2.5 µM; 55 Grays; relative to tubulin", "excerpt": "(§1) Skin tissue biopsies from female patients of A Coruña University Hospital Complex - A Coruña Integrated Management Services (Complejo Hospitalario Universitario de A Coruña - Xerencia Xestión Integrada A Coruña (CHUAC-XXIAC)) were obtained from operations for the surgical removal of a benign pathology (fibroadenoma, samples consisting of untreated healthy skin) and from oncology interventions (samples consisting of skin subjected to radiotherapy and chemotherapy). Signed informed consent was received from each of the patients (2015/029, C.0003333, 2016/077). To isolate primary fibroblast from these samples, hypodermal fat was removed with the aid of a scalpel, and the epidermis was segmented into fragments of about 1x1 cm (explants). Lines were made with a scalpel on a 100 cm^2 adherent Petri dish creating a grid, and each of the explants was placed in the resulting intersections with the epidermis facing up and the dermis in contact with the dish. […] The working concentrations of said compounds were determined by means of literature review and cell viability assays (MTT). […]"}, "p21 [1]": {"test_system": "p21", "test": "Western blot of p21 in radiated fibroblasts", "conditions": "Fig. 7; post-radiation treatment for 72 hours; oleuropein 10 µM, BIRB796 2.5 µM; 55 Grays; relative to tubulin", "excerpt": "as §1"}, "MMP-3": {"test_system": "MMP-3", "test": "Gene expression analysis (qPCR) of MMP-3", "conditions": "Fig. 5B; 72 hours, BIRB796 2.5 µM; 55 Grays; normalized against HPRT1, compared to non-radiated healthy fibroblast control", "excerpt": "as §1\n(§2) For RNA extraction from the different cell types, TRI Reagent (MRC) was used following the manufacturer's instructions. […] The amount and quality of the obtained RNA was quantified in Nanodrop ND-1000. […]"}, "IL-1β": {"test_system": "IL-1β", "test": "Gene expression analysis (qPCR) of IL-1β", "conditions": "Fig. 5C; 72 hours, BIRB796 2.5 µM with or without oleuropein; 55 Grays; normalized against HPRT1", "excerpt": "as §1, §2"}, "IL-6": {"test_system": "IL-6", "test": "Gene expression analysis (qPCR) of IL-6", "conditions": "Fig. 5C; 72 hours, BIRB796 2.5 µM with or without oleuropein; 55 Grays; normalized against HPRT1", "excerpt": "as §1, §2"}, "p21 [2]": {"test_system": "p21", "test": "Gene expression analysis (qPCR) of p21", "conditions": "Fig. 8; 72 hours; oleuropein 10 µM, BIRB796 2.5 µM; 55 Grays; normalized against HPRT1", "excerpt": "as §1, §2"}}, "data": [{"molecule": "Cc1ccc(-n2nc(C(C)(C)C)cc2NC(=O)Nc2ccc(OCCN3CCOCC3)c3ccccc23)cc1", "note": "[BIRB796, doramapimod]", "values": [{"measurement": "protein levels of p53", "setting": "p53", "result": "effectively reduced protein levels of both factors"}, {"measurement": "protein levels of p21", "setting": "p21 [1]", "result": "effectively reduced protein levels of both factors"}, {"measurement": "MMP-3 mRNA levels", "setting": "MMP-3", "result": "protects against the synthesis of SASP components such as MMP-3"}, {"measurement": "IL-1β mRNA levels", "setting": "IL-1β", "result": "decreases synthesis of the inflammatory component"}, {"measurement": "IL-6 mRNA levels", "setting": "IL-6", "result": "decreases synthesis of the inflammatory component"}, {"measurement": "p21 mRNA level", "setting": "p21 [2]", "result": "reduces the gene expression of senescence factor p21"}]}]}
